{
  "source": "patent US20170333389A1",
  "about": "“Method of Ameliorating Clotting Pathologies and Related Materials and Methods” (The Ohio State University, priority 2012, published 2017)",
  "origin": "cited, not measured here",
  "key": {"platelet aggregation": {"tested_on": "platelet aggregation", "conditions": "low-dose aspirin (81 mg) treated healthy volunteers"}, "[1]": {"conditions": "patients who have had a TIA or stroke"}},
  "data": [
    {"compound": "CC(=O)CC(c1ccccc1)c1c(O)c2ccccc2oc1=O", "note": "(centres unmarked) [warfarin]", "values": [
      {"measurement": "decrease of relative stroke risk", "setting": "recurrent stroke; patients with stroke due to atrial fibrillation, dose-adjusted", "result": 62, "unit": "%"}
    ]},
    {"compound": "CC(C)c1c(C(=O)Nc2ccccc2)c(-c2ccccc2)c(-c2ccc(F)cc2)n1CC[C@@H](O)C[C@@H](O)CC(=O)O", "note": "[atorvastatin]", "values": [
      {"measurement": "decrease of risk of recurrent stroke", "setting": "recurrent stroke; patients with stroke, high dose, over 5 years", "result": "about 2%"}
    ]},
    {"compound": "CC(=O)Oc1ccccc1C(=O)O", "note": "[aspirin]", "values": [
      {"measurement": "platelet function recovery after withdrawal", "setting": "platelet aggregation", "result": "48 to 72", "unit": "h"},
      {"measurement": "decrease of relative risk of non-fatal ischemic stroke", "setting": "recurrent stroke; [1]", "result": 19, "unit": "%"},
      {"measurement": "decrease of relative risk of recurrent stroke, myocardial infarction, and vascular death", "setting": "recurrent stroke; [1]", "result": 13, "unit": "%"}
    ]}
  ]
}
